Assay results taken from patent publication US7816134B2, “Method of extensive culture of antigen-specific cytotoxic T cells” (Takara Bio Inc., priority 2000, dated 2010).
Read-outs that look alike come from different tables or passages of the source.

Columns and labels:
[1] = test system: HLA-A2.1-having EBV transformed B-cells (221A2.1); conditions: FluMPA2.1
[2] = test system: HLA-A2.1-having EBV transformed B-cells (221A2.1); test: Cytotoxic activity of anti-tumor-associated antigen(MAGE3)-specific CTLs on the thirty-fifth day after the initiation of induction; conditions: 10 μg/ml
[3] = test system: anti-influenza virus memory CTLs (FluMPA2.1); type: cell-based, human
[4] = test system: HLA-A2.1-having EBV transformed B-cells (221A2.1); test: Specific cytotoxic activity of MAGE3-specific CTLs after expansion; type: cell-based, human; conditions: for Cytotoxic Activity (%): sample induction +, expansion +
Text: (§1) CTLs prepared in item (1) of Example 2-1 were washed with 5HRPMI, and then made into a suspension having a concentration of 5×10^4 cells/ml. On the other hand, allogenic PBMCs not having HLA-A24 and HLA-A2.1 which were collected in the same manner as in item (1) of Example 1-1 were subjected to X-ray irradiation (3300R), and the cells were washed with the medium and then made into a suspension having a concentration of 5×10^6 cells/ml. These CTLs (2.5×10^4 cells) and allogenic PBMCs (1.25×10^7 cells) were suspended in 10 ml of 5HRPMI, and anti-CD3 antibody (manufactured by Janssen-Kyowa) was further added thereto so as to give a final concentration of 50 ng/ml. The mixture was placed into a flask of 12.5 cm^2 (manufactured by Falcon), and the cells were cultured in a wet-type CO2 incubator at 37° C. for 14 days. […] The expansion ratio (× times ratio) was calculated by dividing the cell count after the expansion by the cell count before the expansion.

[5] = test system: anti-tumor-associated antigen(MAGE3)-specific CTLs; test: Expansion ratio of MAGE3-specific CTLs; type: cell-based, human; conditions: sample 10 μg/ml: induction +, 14 days
Text: as §1

[6] = test system: HLA-A2.1-having EBV transformed B-cells (221A2.1); conditions: for Cytotoxic Activity (%) E/T Ratio 3 / Cytotoxic Activity (%) E/T Ratio 10 / Cytotoxic Activity (%) E/T Ratio 2.5 / Cytotoxic Activity (%) E/T Ratio 5 / Cytotoxic Activity (%) E/T Ratio 1: FluMPA2.1
[7] = Example 2-4, sample 10 μg/ml during CTL induction +, during expansion +, peptide addition +
[8] = Example 2-4, sample 10 μg/ml during CTL induction +, during expansion +, peptide addition −
[9] = Example 2-6, sample during CTL induction −, during expansion + (10 μg/ml), peptide addition +
[10] = Example 2-6, sample during CTL induction −, during expansion + (10 μg/ml), peptide addition −
[11] = Example 2-7, sample 10 μg/ml during CTL induction +, during expansion +, peptide addition +
[12] = Example 2-7, sample 10 μg/ml during CTL induction +, during expansion +, peptide addition −
[13] = Example 2-7, sample 10 μg/ml during CTL induction +, during expansion −, peptide addition +
[14] = Example 2-7, sample 10 μg/ml during CTL induction +, during expansion −, peptide addition −
[15] = Example 2-4, sample 10 μg/ml during CTL induction +, during expansion +
[16] = Example 2-6, sample during CTL induction −, during expansion + (10 μg/ml)
[17] = Example 1-3, sample 10 μg/ml during CTL induction +, during culture with IL-2 +, peptide addition +
[18] = Example 1-3, sample 10 μg/ml during CTL induction +, during culture with IL-2 +, peptide addition −
[19] = Example 1-5, sample during CTL induction −, during culture with IL-2 + (10 μg/ml), peptide addition +
[20] = Example 1-5, sample during CTL induction −, during culture with IL-2 + (10 μg/ml), peptide addition −
[21] = sample 10 μg/ml during CTL induction and during continuous culture, 10 to 14 days
[22] = sample 10 μg/ml only during continuous culture
[23] = Example 1-4, sample 10 μg/ml during CTL induction +, during culture with IL-2 +, peptide addition +
[24] = Example 1-4, sample 10 μg/ml during CTL induction +, during culture with IL-2 +, peptide addition −

## Ardeparin sodium [L. M. W. Heparin, reference compound]
[1]; [7]
  Cytotoxic Activity (%) E/T Ratio 3: 56.4%
  Cytotoxic Activity (%) E/T Ratio 10: 92.9%
[1]; [8]
  Cytotoxic Activity (%) E/T Ratio 3: 5.2%
  Cytotoxic Activity (%) E/T Ratio 10: 19.6%
[1]; [9]
  Cytotoxic Activity (%) E/T Ratio 1: 11.3%
  Cytotoxic Activity (%) E/T Ratio 3: 22.2%
  Cytotoxic Activity (%) E/T Ratio 10: 43.9%
  Cytotoxic Activity (%) E/T Ratio 30: 71.2%
[1]; [10]
  Cytotoxic Activity (%) E/T Ratio 1: 1.4%
  Cytotoxic Activity (%) E/T Ratio 3: 0%
  Cytotoxic Activity (%) E/T Ratio 10: 0.6%
  Cytotoxic Activity (%) E/T Ratio 30: 2.5%
[1]; [11]
  Cytotoxic Activity (%) E/T Ratio 1: 16.3%
  Cytotoxic Activity (%) E/T Ratio 3: 22.7%
  Cytotoxic Activity (%) E/T Ratio 10: 43.9%
  Cytotoxic Activity (%) E/T Ratio 30: 72.8%
[1]; [12]
  Cytotoxic Activity (%) E/T Ratio 1: 5.6%
  Cytotoxic Activity (%) E/T Ratio 3: 2.5%
  Cytotoxic Activity (%) E/T Ratio 10: 1.1%
  Cytotoxic Activity (%) E/T Ratio 30: 0.9%
[1]; [13]
  Cytotoxic Activity (%) E/T Ratio 1: 12.5%
  Cytotoxic Activity (%) E/T Ratio 3: 26.9%
  Cytotoxic Activity (%) E/T Ratio 10: 57.8%
  Cytotoxic Activity (%) E/T Ratio 30: 83.7%
[1]; [14]
  Cytotoxic Activity (%) E/T Ratio 1: 5.2%
  Cytotoxic Activity (%) E/T Ratio 3: 4.5%
  Cytotoxic Activity (%) E/T Ratio 10: 6.6%
  Cytotoxic Activity (%) E/T Ratio 30: 7.0%
[2]
  difference in the cytotoxic activity by the presence or absence of the addition during the induction: almost no difference
[3]; [15]
  Expansion Ratio: × 240
[3]; [16]
  Expansion Ratio: × 353
[3]; Example 2-7, sample 10 μg/ml during CTL induction +, during expansion +
  Expansion Ratio: × 243
[3]; Example 2-7, sample 10 μg/ml during CTL induction +, during expansion −
  Expansion Ratio: × 253
[4]; MAGE3-specific CTLs, sample 10 μg/ml during CTL induction and during expansion
  cytotoxic activity after expansion for 14 days (in words): specific, high cytotoxic activity
[4]; peptide addition +, E/T ratio 3
  Cytotoxic Activity (%): 65.3%
[4]; peptide addition +, E/T ratio 9
  Cytotoxic Activity (%): 104.8%
[4]; peptide addition −, E/T ratio 3
  Cytotoxic Activity (%): 2.6%
[4]; peptide addition −, E/T ratio 9
  Cytotoxic Activity (%): 3.7%
[5]
  Expansion Ratio: × 433
[6]; [17]
  Cytotoxic Activity (%) E/T Ratio 3: 49.0%
  Cytotoxic Activity (%) E/T Ratio 10: 71.7%
[6]; [18]
  Cytotoxic Activity (%) E/T Ratio 3: 11.7%
  Cytotoxic Activity (%) E/T Ratio 10: 14.2%
[6]; [19]
  Cytotoxic Activity (%) E/T Ratio 10: 18.3%
[6]; [20]
  Cytotoxic Activity (%) E/T Ratio 10: 0%
[6]; [21]
  cytotoxic activity after continuous culture (in words): continuous culture of CTLs having an antigen-specific cytotoxic activity can be carried out
[6]; [22]
  cytotoxic activity after continuous culture (in words): maintaining an antigen-specific cytotoxic activity

## sodium salt of sulfated fucose
[1]; [7]
  Cytotoxic Activity (%) E/T Ratio 10: 70.2%
[1]; [8]
  Cytotoxic Activity (%) E/T Ratio 10: 23.3%
[1]; [9]
  Cytotoxic Activity (%) E/T Ratio 10: 32.5%
  Cytotoxic Activity (%) E/T Ratio 30: 64.9%
[1]; [10]
  Cytotoxic Activity (%) E/T Ratio 10: 0%
  Cytotoxic Activity (%) E/T Ratio 30: 1.3%
[3]; [15]
  Expansion Ratio: × 240
[3]; [16]
  Expansion Ratio: × 448
[6]; [23]
  Cytotoxic Activity (%) E/T Ratio 2.5: 17.6%
  Cytotoxic Activity (%) E/T Ratio 5: 36.6%
  Cytotoxic Activity (%) E/T Ratio 10: 55.3%
[6]; [24]
  Cytotoxic Activity (%) E/T Ratio 2.5: 0%
  Cytotoxic Activity (%) E/T Ratio 5: 0%
  Cytotoxic Activity (%) E/T Ratio 10: 0.2%
[6]; [19]
  Cytotoxic Activity (%) E/T Ratio 1: 8.9%
  Cytotoxic Activity (%) E/T Ratio 3: 12.6%
  Cytotoxic Activity (%) E/T Ratio 10: 26.4%
[6]; [20]
  Cytotoxic Activity (%) E/T Ratio 1: 0%
  Cytotoxic Activity (%) E/T Ratio 3: 0.4%
  Cytotoxic Activity (%) E/T Ratio 10: 3.3%
[6]; [21]
  cytotoxic activity after continuous culture (in words): effects for maintaining cytotoxic activity
[6]; [22]
  cytotoxic activity after continuous culture (in words): maintaining an antigen-specific cytotoxic activity
